# Results taken from patent US20100204156A1, “USE OF THYMOPENTIN AS A THERAPEUTIC AGENT” (priority 2007, published 2010).
# Residues, ends and D or L forms follow the SMILES beside them.
# Test system: drug-resistant Mycobacterium tuberculosis
# Conditions: 5 micrograms per ml
smiles,measurement,value
"CC(C)[C@H](NC(=O)[C@H](CC(=O)O)NC(=O)[C@H](CCCCN)NC(=O)[C@@H](N)CCCN=C(N)N)C(=O)N[C@@H](Cc1ccc(O)cc1)C(=O)O [Thymopentin, Arg-Lys-Asp-Val-Tyr-OH] (H-RKDVY-OH)",% inhibition,0.0%
